Test results: patent publication US7118895B2, “Process for producing aglycon by using diglycosidase and flavor-improved food containing the aglycon and converting agent to be used in the process” (Amano Enzyme Inc., priority 2000, dated 2006)

Tests used:
[1] = tested on: Diglycosidase derived from P. multicolor; assay: Reactivity toward various isoflavone glycosides (HPLC); format: biochemical, Penicillium multicolor; set-up: glucoside / aglycon: unit not given here; details: 55 °C, pH 4.0
Protocol: (§1) Diglycosidase was diluted with an acetate buffer of pH 4.0 to prepare a 0.75 AU/mL enzyme solution. As references, a similar operation was conducted using β-glucosidase (manufactured by Fluka) derived from Aspergillus niger, β-glucosidase (manufactured by Sigma) derived from almond, β-xylosidase derived from pectinase G (manufactured by Amano Enzyme Inc.). Each of purified products of isoflavone glycosides (glycitin, acetylglycitin, malonylglycitin, daidzin, acetyldaidzin, malonyldaidzin, genistin, acetylgenistin, malonylgenistin, all manufactured by Nacalai Tesque, Inc.) was dissolved in methanol to prepare each 2 mM substrate solution. The reaction was carried out by mixing 10 μL of a substrate solution, 200 μL of 20 mM acetate buffer (pH 4.0), and 40 μL of each purified enzyme solution at a total liquid volume of 250 μL. The reaction was carried out at 55° C. and isolation of an aglycon isoflavone from an isoflavone glycoside in the reaction mixture was detected by HLPC at 0, 1, 3, and 6 hours of the reaction.
(§2) To the reaction mixture was added 700 μL of ethanol, followed by stirring and ultrasonication. After centrifugation at 15,000 rpm and 4° C. for 10 minutes, the supernatant was filtered through a filter and then the filtrate was applied to HPLC.
(§3) The isoflavone glycoside and aglycon isoflavone contained in the filtrate was separated and detected by a high performance liquid chromatography (HPLC, Shimadzu CLASS LC-10 system) using TOSOH TSK gel ODS-80TM column (manufactured by Tosoh Corporation). […] The absorbance at 260 nm was detected by a UV detector (Shimadzu, SPD-10AV). Using purified products (manufactured by Nacalai Tesque, Inc.) of the above isoflavone glycosides and aglycon isoflavones, the isoflavone glycoside and aglycon isoflavone were quantitatively determined according to a calibration curve method. By the way, unless otherwise stated, the measuring conditions of HPLC herein mean those described in the example.

[2] = tested on: Crude diglycosidase; assay: Examination of substrate concentration in the conversion into isoflavone aglycons by diglycosidase using soybean materials; format: biochemical, Penicillium multicolor IAM7153;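 note: percent of the isoflavone family total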
Outline: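 Reaction at 55° C, shaken, pH 4.0 (20 mM acetate), using crude diglycosidase from a 1.88 AU/mL enzyme solution on soy flour, soymilk, defatted soybean or soy protein concentrate at 2, 5, 10, 20 or 30% (w/v). Isoflavone aglycons quantified by HPLC of ethanol extracts at 0, 1, 3, 6 h.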

[3] = tested on: β-Glucosidase derived from A. niger; assay: Reactivity toward various isoflavone glycosides (HPLC); format: biochemical, Aspergillus niger; set-up: glucoside / aglycon: unit not given here; details: 55 °C, pH 4.0
Protocol: as §1, §2, §3

## COc1cc2c(=O)c(-c3ccc(O)cc3)coc2cc1O[C@@H]1O[C@H](COC(C)=O)[C@@H](O)[C@H](O)[C@H]1O [acetylglycitin, 6″-O-acetylglycitin]
[1]; Reaction time 0 h
  aglycon: 0
  glucoside: 100
[1]; Reaction time 1 h
  aglycon: 98
  glucoside: 2
[1]; Reaction time 3 h
  aglycon: 97.9
  glucoside: 2.1
[1]; Reaction time 6 h
  aglycon: 97.5
  glucoside: 2.5
[2]; concentrated soybean protein, substrate concentration 2%, heat treatment of enzyme no, reaction time 0 h
  Decomposition efficiency: ratio of each glycoside/aglycon within its isoflavone family: 35.8%
[2]; concentrated soybean protein, substrate concentration 2%, heat treatment of enzyme no, reaction time 1 h
  Decomposition efficiency: ratio of each glycoside/aglycon within its isoflavone family: 14.3%
[2]; concentrated soybean protein, substrate concentration 2%, heat treatment of enzyme no, reaction time 3 h
  Decomposition efficiency: ratio of each glycoside/aglycon within its isoflavone family: 5.3%
[2]; concentrated soybean protein, substrate concentration 2%, heat treatment of enzyme no, reaction time 6 h
  Decomposition efficiency: ratio of each glycoside/aglycon within its isoflavone family: 0.0%
[2]; concentrated soybean protein, substrate concentration 2%, heat treatment of enzyme yes, reaction time 6 h
  Decomposition efficiency: ratio of each glycoside/aglycon within its isoflavone family: 35.0%
[2]; concentrated soybean protein, substrate concentration 5%, heat treatment of enzyme no, reaction time 0 h
  Decomposition efficiency: ratio of each glycoside/aglycon within its isoflavone family: 35.6%
[2]; concentrated soybean protein, substrate concentration 5%, heat treatment of enzyme no, reaction time 1 h
  Decomposition efficiency: ratio of each glycoside/aglycon within its isoflavone family: 27.1%
[2]; concentrated soybean protein, substrate concentration 5%, heat treatment of enzyme no, reaction time 3 h
  Decomposition efficiency: ratio of each glycoside/aglycon within its isoflavone family: 17.8%
[2]; concentrated soybean protein, substrate concentration 5%, heat treatment of enzyme no, reaction time 6 h
  Decomposition efficiency: ratio of each glycoside/aglycon within its isoflavone family: 12.3%
[2]; concentrated soybean protein, substrate concentration 5%, heat treatment of enzyme yes, reaction time 6 h
  Decomposition efficiency: ratio of each glycoside/aglycon within its isoflavone family: 34.4%
[2]; concentrated soybean protein, substrate concentration 10%, heat treatment of enzyme no, reaction time 0 h
  Decomposition efficiency: ratio of each glycoside/aglycon within its isoflavone family: 35.7%
[2]; concentrated soybean protein, substrate concentration 10%, heat treatment of enzyme no, reaction time 1 h
  Decomposition efficiency: ratio of each glycoside/aglycon within its isoflavone family: 31.2%
[2]; concentrated soybean protein, substrate concentration 10%, heat treatment of enzyme no, reaction time 3 h
  Decomposition efficiency: ratio of each glycoside/aglycon within its isoflavone family: 26.2%
[2]; concentrated soybean protein, substrate concentration 10%, heat treatment of enzyme no, reaction time 6 h
  Decomposition efficiency: ratio of each glycoside/aglycon within its isoflavone family: 23.9%
[2]; concentrated soybean protein, substrate concentration 10%, heat treatment of enzyme yes, reaction time 6 h
  Decomposition efficiency: ratio of each glycoside/aglycon within its isoflavone family: 35.2%
[2]; concentrated soybean protein, substrate concentration 20%, heat treatment of enzyme no, reaction time 0 h
  Decomposition efficiency: ratio of each glycoside/aglycon within its isoflavone family: 35.9%
[2]; concentrated soybean protein, substrate concentration 20%, heat treatment of enzyme no, reaction time 1 h
  Decomposition efficiency: ratio of each glycoside/aglycon within its isoflavone family: 35.4%
[2]; concentrated soybean protein, substrate concentration 20%, heat treatment of enzyme no, reaction time 3 h
  Decomposition efficiency: ratio of each glycoside/aglycon within its isoflavone family: 33.6%
[2]; concentrated soybean protein, substrate concentration 20%, heat treatment of enzyme no, reaction time 6 h
  Decomposition efficiency: ratio of each glycoside/aglycon within its isoflavone family: 30.5%
[2]; concentrated soybean protein, substrate concentration 20%, heat treatment of enzyme yes, reaction time 6 h
  Decomposition efficiency: ratio of each glycoside/aglycon within its isoflavone family: 35.8%
[2]; concentrated soybean protein, substrate concentration 30%, heat treatment of enzyme no, reaction time 0 h
  Decomposition efficiency: ratio of each glycoside/aglycon within its isoflavone family: 33.9%
[2]; concentrated soybean protein, substrate concentration 30%, heat treatment of enzyme no, reaction time 1 h
  Decomposition efficiency: ratio of each glycoside/aglycon within its isoflavone family: 35.9%
[2]; concentrated soybean protein, substrate concentration 30%, heat treatment of enzyme no, reaction time 3 h
  Decomposition efficiency: ratio of each glycoside/aglycon within its isoflavone family: 30.7%
[2]; concentrated soybean protein, substrate concentration 30%, heat treatment of enzyme no, reaction time 6 h
  Decomposition efficiency: ratio of each glycoside/aglycon within its isoflavone family: 28.3%
[2]; concentrated soybean protein, substrate concentration 30%, heat treatment of enzyme yes, reaction time 6 h
  Decomposition efficiency: ratio of each glycoside/aglycon within its isoflavone family: 33.4%
[2]; defatted soybean, substrate concentration 2%, heat treatment of enzyme no, reaction time 0 h
  Decomposition efficiency: ratio of each glycoside/aglycon within its isoflavone family: not detected
[2]; defatted soybean, substrate concentration 2%, heat treatment of enzyme no, reaction time 1 h
  Decomposition efficiency: ratio of each glycoside/aglycon within its isoflavone family: not detected
[2]; defatted soybean, substrate concentration 2%, heat treatment of enzyme no, reaction time 3 h
  Decomposition efficiency: ratio of each glycoside/aglycon within its isoflavone family: not detected
[2]; defatted soybean, substrate concentration 2%, heat treatment of enzyme no, reaction time 6 h
  Decomposition efficiency: ratio of each glycoside/aglycon within its isoflavone family: not detected
[2]; defatted soybean, substrate concentration 2%, heat treatment of enzyme yes, reaction time 6 h
  Decomposition efficiency: ratio of each glycoside/aglycon within its isoflavone family: not detected
[2]; defatted soybean, substrate concentration 5%, heat treatment of enzyme no, reaction time 0 h
  Decomposition efficiency: ratio of each glycoside/aglycon within its isoflavone family: not detected
[2]; defatted soybean, substrate concentration 5%, heat treatment of enzyme no, reaction time 1 h
  Decomposition efficiency: ratio of each glycoside/aglycon within its isoflavone family: not detected
[2]; defatted soybean, substrate concentration 5%, heat treatment of enzyme no, reaction time 3 h
  Decomposition efficiency: ratio of each glycoside/aglycon within its isoflavone family: not detected
[2]; defatted soybean, substrate concentration 5%, heat treatment of enzyme no, reaction time 6 h
  Decomposition efficiency: ratio of each glycoside/aglycon within its isoflavone family: not detected
[2]; defatted soybean, substrate concentration 5%, heat treatment of enzyme yes, reaction time 6 h
  Decomposition efficiency: ratio of each glycoside/aglycon within its isoflavone family: not detected
[2]; defatted soybean, substrate concentration 10%, heat treatment of enzyme no, reaction time 0 h
  Decomposition efficiency: ratio of each glycoside/aglycon within its isoflavone family: not detected
[2]; defatted soybean, substrate concentration 10%, heat treatment of enzyme no, reaction time 1 h
  Decomposition efficiency: ratio of each glycoside/aglycon within its isoflavone family: not detected
[2]; defatted soybean, substrate concentration 10%, heat treatment of enzyme no, reaction time 3 h
  Decomposition efficiency: ratio of each glycoside/aglycon within its isoflavone family: not detected
[2]; defatted soybean, substrate concentration 10%, heat treatment of enzyme no, reaction time 6 h
  Decomposition efficiency: ratio of each glycoside/aglycon within its isoflavone family: not detected
[2]; defatted soybean, substrate concentration 10%, heat treatment of enzyme yes, reaction time 6 h
  Decomposition efficiency: ratio of each glycoside/aglycon within its isoflavone family: not detected
[2]; roasted soy flour, substrate concentration 2%, heat treatment of enzyme no, reaction time 0 h
  Decomposition efficiency: ratio of each glycoside/aglycon within its isoflavone family: 33.6%
[2]; roasted soy flour, substrate concentration 2%, heat treatment of enzyme no, reaction time 1 h
  Decomposition efficiency: ratio of each glycoside/aglycon within its isoflavone family: not detected
[2]; roasted soy flour, substrate concentration 2%, heat treatment of enzyme no, reaction time 3 h
  Decomposition efficiency: ratio of each glycoside/aglycon within its isoflavone family: not detected
[2]; roasted soy flour, substrate concentration 2%, heat treatment of enzyme no, reaction time 6 h
  Decomposition efficiency: ratio of each glycoside/aglycon within its isoflavone family: not detected
[2]; roasted soy flour, substrate concentration 2%, heat treatment of enzyme yes, reaction time 6 h
  Decomposition efficiency: ratio of each glycoside/aglycon within its isoflavone family: 34.4%
[2]; roasted soy flour, substrate concentration 5%, heat treatment of enzyme no, reaction time 0 h
  Decomposition efficiency: ratio of each glycoside/aglycon within its isoflavone family: 33.8%
[2]; roasted soy flour, substrate concentration 5%, heat treatment of enzyme no, reaction time 1 h
  Decomposition efficiency: ratio of each glycoside/aglycon within its isoflavone family: 11.8%
[2]; roasted soy flour, substrate concentration 5%, heat treatment of enzyme no, reaction time 3 h
  Decomposition efficiency: ratio of each glycoside/aglycon within its isoflavone family: 7.2%
[2]; roasted soy flour, substrate concentration 5%, heat treatment of enzyme no, reaction time 6 h
  Decomposition efficiency: ratio of each glycoside/aglycon within its isoflavone family: not detected
[2]; roasted soy flour, substrate concentration 5%, heat treatment of enzyme yes, reaction time 6 h
  Decomposition efficiency: ratio of each glycoside/aglycon within its isoflavone family: 33.8%
[2]; roasted soy flour, substrate concentration 10%, heat treatment of enzyme no, reaction time 0 h
  Decomposition efficiency: ratio of each glycoside/aglycon within its isoflavone family: 24.2%
[2]; roasted soy flour, substrate concentration 10%, heat treatment of enzyme no, reaction time 1 h
  Decomposition efficiency: ratio of each glycoside/aglycon within its isoflavone family: 16.7%
[2]; roasted soy flour, substrate concentration 10%, heat treatment of enzyme no, reaction time 3 h
  Decomposition efficiency: ratio of each glycoside/aglycon within its isoflavone family: 9.7%
[2]; roasted soy flour, substrate concentration 10%, heat treatment of enzyme no, reaction time 6 h
  Decomposition efficiency: ratio of each glycoside/aglycon within its isoflavone family: not detected
[2]; roasted soy flour, substrate concentration 10%, heat treatment of enzyme yes, reaction time 6 h
  Decomposition efficiency: ratio of each glycoside/aglycon within its isoflavone family: 35.1%
[2]; roasted soy flour, substrate concentration 20%, heat treatment of enzyme no, reaction time 0 h
  Decomposition efficiency: ratio of each glycoside/aglycon within its isoflavone family: 31.8%
[2]; roasted soy flour, substrate concentration 20%, heat treatment of enzyme no, reaction time 1 h
  Decomposition efficiency: ratio of each glycoside/aglycon within its isoflavone family: 22.9%
[2]; roasted soy flour, substrate concentration 20%, heat treatment of enzyme no, reaction time 3 h
  Decomposition efficiency: ratio of each glycoside/aglycon within its isoflavone family: 13.8%
[2]; roasted soy flour, substrate concentration 20%, heat treatment of enzyme no, reaction time 6 h
  Decomposition efficiency: ratio of each glycoside/aglycon within its isoflavone family: 10.0%
[2]; roasted soy flour, substrate concentration 20%, heat treatment of enzyme yes, reaction time 6 h
  Decomposition efficiency: ratio of each glycoside/aglycon within its isoflavone family: 35.0%
[2]; roasted soy flour, substrate concentration 30%, heat treatment of enzyme no, reaction time 0 h
  Decomposition efficiency: ratio of each glycoside/aglycon within its isoflavone family: 35.3%
[2]; roasted soy flour, substrate concentration 30%, heat treatment of enzyme no, reaction time 1 h
  Decomposition efficiency: ratio of each glycoside/aglycon within its isoflavone family: 28.4%
[2]; roasted soy flour, substrate concentration 30%, heat treatment of enzyme no, reaction time 3 h
  Decomposition efficiency: ratio of each glycoside/aglycon within its isoflavone family: 24.4%
[2]; roasted soy flour, substrate concentration 30%, heat treatment of enzyme no, reaction time 6 h
  Decomposition efficiency: ratio of each glycoside/aglycon within its isoflavone family: 13.7%
[2]; roasted soy flour, substrate concentration 30%, heat treatment of enzyme yes, reaction time 6 h
  Decomposition efficiency: ratio of each glycoside/aglycon within its isoflavone family: 34.4%
[3]; Reaction time 0 h
  aglycon: 0
  glucoside: 100
[3]; Reaction time 1 h
  aglycon: 0
  glucoside: 100
[3]; Reaction time 3 h
  aglycon: 1
  glucoside: 99
[3]; Reaction time 6 h
  aglycon: 1.9
  glucoside: 98.1
